In patent publication US20250064763A1, “METHODS OF TREATMENT OF PRIMARY BILIARY CHOLANGITIS” (Ipsen Pharma, priority 2023, published 2025):

Columns and labels:
patients with PBC = settings: cited from earlier work
subjects with PBC = assay: Clinical study of elafibranor, biochemical markers in plasma; settings: human, in vivo

| Structure (SMILES) | effect on pruritus (patients with PBC; phase III study, OCA groups compared to placebo) | liver injury (patients with PBC; post marketing reports, PBC patients with compensated or decompensated cirrhosis) | biochemical markers in the plasma (subjects with PBC) |
| --- | --- | --- | --- |
| CC[C@H]1[C@@H](O)[C@@H]2[C@H](CC[C@]3(C)[C@@H]([C@H](C)CCC(=O)O)CC[C@@H]23)[C@@]2(C)CC[C@@H](O)C[C@@H]12 [OCA, obeticholic acid] | exacerbate pruritus | led to hepatic decompensation and liver failure |  |
| CSc1ccc(C(=O)/C=C/c2cc(C)c(OC(C)(C)C(=O)O)c(C)c2)cc1 [elafibranor] |  |  | relevant reduction |
